Results reported in PMC5608804, “Stepwise Evolution Improves Identification of Diverse Peptides Binding to a Protein Target” (Scientific Reports, 2017).
Square brackets hold non-standard residues; d marks the D form. Ends that are not written are not given here. Peptide text beside a SMILES is read from it.

Experiments:
streptavidin [1] = target: T1, streptavidin (Streptomyces avidinii, UniProt P22629); test: SPR analysis of peptide binding to immobilized streptavidin (Biacore X100); details: for type of SPR binding kinetics: SPR sensorgrams, immobilized streptavidin
T1 construct: purchased GE Healthcare (Little Chalfont, UK)
T1 sequence (P22629 25-183): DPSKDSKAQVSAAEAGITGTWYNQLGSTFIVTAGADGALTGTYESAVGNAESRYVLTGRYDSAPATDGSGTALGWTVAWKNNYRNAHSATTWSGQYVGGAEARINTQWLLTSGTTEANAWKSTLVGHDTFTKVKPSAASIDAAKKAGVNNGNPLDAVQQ
Protocol: SPR analysis of peptide binding to streptavidin was performed with streptavidin immobilized on a chip and peptides in solution (see Materials and Methods).
Surface Plasmon Resonance (SPR) experiments were performed using a Biacore X100 instrument (GE Healthcare). 60 µl of 100 µg/ml streptavidin in 10 mM Na-acetate (pH 5.0) was immobilized to flow cell 2 (Fc2) of a sensor chip CM5 (GE Healthcare) using the Amine Coupling Kit (GE Healthcare) at 20 °C for 6 min. Peptide stock solutions were prepared at 5 or 10 mM in H2O and diluted in HBS-EP+ (GE Healthcare) buffer. Peptide binding was performed in a multiple kinetics mode using HBS-EP+ as a running buffer and 0.2 M NaCl, 10 mM NaOH, or 10 mM HCl-glycine (pH 1.7) as the regeneration buffer. Binding kinetics parameters were calculated using Biacore X100 software.

streptavidin [2] = target: T1, streptavidin; test: Cy5-streptavidin binding on cyclic discovery array, paired cyclic/linear 5-mer L/D-peptides; details: Cy5-SA, three independent replicates on the same array, cyclic vs linear features
Excerpt: To identify cyclic peptide binders to streptavidin, Cy5-SA was bound to an array library of 388,962 5-mer L/D-peptides. The pentameric peptides were composed of a 4-mer peptide synthesized with a combination of uncharged L- and D-amino acids and a γ-Glu: this residue enabled synthesis of both head-to-tail cyclic and linear peptides, respectively, for each peptide through either allyl ester or t-butyl ester C-terminal protection (see Materials and Methods for amino acid composition and cyclization protocol). The paired cyclic and linear array features were spatially positioned side-by-side to control for potential variations in cyclization yield for each peptide. The fluorescence signal intensities across three independent replicates on the same array were compared and the ratio cyclic to linear peptide of signal intensities was compared.
The combined cyclic and linear peptide libraries were synthesized starting with either the allyl ester (OAll) or t-butyl ester, respectively, of N-(2-nitrophenyl)propoxycarbonyl (NPPOC)-protected glutamate (γ-Glu) linked to the array surface through the carboxylic acid side chain. […]
Cy5 fluorescence intensity of the arrays was measured with an MS200 scanner (Roche NimbleGen, Madison, WI) at resolution 2 µm, wavelength 635 nm, gain 25%, and laser intensity 100%. […]

Compound: EWVHPQFEQKAK-NH2 [NH2-EWVHPQFEQKAK-amide]
- type of SPR binding kinetics (streptavidin [1]): fast on/fast off

Compound: NC(=O)CC[C@H](NC(=O)[C@H](Cc1c[nH]c2ccccc12)NC(=O)[C@H]1CCCN1C(=O)[C@H](CCC(N)=O)NC(=O)[C@@H](N)CC(N)=O)C(=O)O [NH2-NQpWQ-COOH] (H-NQ[dP]WQ-OH)
- binding in SPR (streptavidin [1]; peptide concentrations of ≤2 mM): no measurable binding

Compound: AFPDYLAEYHGG-NH2 [NH2-AFPDYLAEYHGG-amide]
- fold improvement of Kd over the HPQ peptide also developed in this study (streptavidin [1]; SPR Kd versus EWVHPQFEQKAK): 100 fold
- fold improvement of Kd over Strep-tag II HPQ (streptavidin [1]; SPR Kd versus Strep-tag II HPQ): 1,000 fold

Compound: NC(=O)CC[C@@H]1NC(=O)[C@H](Cc2c[nH]c3ccccc23)NC(=O)[C@H]2CCCN2C(=O)[C@H](CCC(N)=O)NC(=O)[C@H](CC(N)=O)NC1=O [NQpWQ (head-to-tail cyclic)] (cyclo(NQ[dP]WQ))
- type of SPR binding kinetics (streptavidin [1]): fast on/fast off
- fluorescence signal intensity on cyclic discovery array (streptavidin [2]): highest fluorescence signal intensity

Compound: H-GNSFDDWLASKG-NH2
- type of SPR binding kinetics (streptavidin [1]): irreversible binding kinetics
- equilibrium dissociation constant (Kd) (streptavidin [1]; SPR, streptavidin amine-coupled to CM5 chip, peptides in HBS-EP+, steady-state affinity for fast on/fast off peptides, otherwise 1:1 binding model): irreversible binding

Compound: SAWSHPQFEK [NH2-SAWSHPQFEK-COOH, reference compound]
- type of SPR binding kinetics (streptavidin [1]): fast on/fast off
